Experimental data: publication PMC11011439, “Influence of Molecular Design on the Tumor Targeting and Biodistribution of PSMA-Binding Tracers Labeled with Technetium-99m” (International Journal of Molecular Sciences, 2024)

Columns and labels:
PSMA = biological target: T1, PSMA (Homo sapiens, UniProt Q04609); experiment: Real-time binding kinetics on living PC3-pip cells (LigandTracer Yellow); settings: 5 nM tracer, 1:2 interaction model; for Kd: read-out: KD1
T1 construct: expressed in transfected cells; host or cells: PC3-pip cells (from Prof. Martin G. Pomper, Johns Hopkins University)
T1 sequence (Q04609 whole entry): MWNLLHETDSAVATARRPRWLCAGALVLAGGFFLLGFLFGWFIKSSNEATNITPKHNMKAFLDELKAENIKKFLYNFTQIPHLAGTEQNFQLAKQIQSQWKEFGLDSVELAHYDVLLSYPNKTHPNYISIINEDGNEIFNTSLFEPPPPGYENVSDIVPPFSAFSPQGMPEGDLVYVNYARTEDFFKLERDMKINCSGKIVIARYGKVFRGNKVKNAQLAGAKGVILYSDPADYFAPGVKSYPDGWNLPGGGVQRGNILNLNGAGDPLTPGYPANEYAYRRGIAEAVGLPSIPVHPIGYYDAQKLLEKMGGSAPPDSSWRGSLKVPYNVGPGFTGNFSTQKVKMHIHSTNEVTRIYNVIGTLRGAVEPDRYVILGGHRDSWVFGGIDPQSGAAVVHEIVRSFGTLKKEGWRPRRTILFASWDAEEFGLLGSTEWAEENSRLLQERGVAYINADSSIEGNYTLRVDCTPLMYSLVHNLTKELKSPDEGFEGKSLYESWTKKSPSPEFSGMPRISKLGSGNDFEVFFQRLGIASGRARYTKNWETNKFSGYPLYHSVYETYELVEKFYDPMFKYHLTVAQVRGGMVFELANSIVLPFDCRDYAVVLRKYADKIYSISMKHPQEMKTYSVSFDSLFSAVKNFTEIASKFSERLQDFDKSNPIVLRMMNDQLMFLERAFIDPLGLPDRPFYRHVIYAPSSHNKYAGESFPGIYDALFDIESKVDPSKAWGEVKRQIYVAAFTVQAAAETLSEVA
Experimental: The binding kinetics of [^99mTc]Tc-labeled BQ0411, BQ0412, and BQ0413 were measured in real time using LigandTracer Yellow Instruments (Ridgeview Instruments AB, Uppsala, Sweden) on PC3-pip cells, as described earlier. The activity binding was recorded at 5 nM on the radiolabeled tracers for 150 min. After measuring the binding kinetics, the medium containing the labeled tracer was replaced with fresh medium, and the dissociation was monitored over 7 h. […]

[1] = Octanol/water distribution coefficient (LogD); format: physicochemical; settings: n-octanol / Milli-Q water
Experimental: The LogD was determined experimentally based on the procedure described earlier. Briefly, the radiolabeled compound of interest was added to a LoBind Eppendorf tube (Eppendorf, Hamburg, Germany) containing Milli-Q water (500 μL) and n-octanol (500 μL), and the mixture was vortexed and centrifuged. Thereafter, three fractions from each phase were collected and the activity was measured using a gamma counter. The LogD was calculated by dividing the average activity measured in octanol by the average activity measured in water.

[2] = test system: PSMA-expressing prostate cancer xenografts (PC3-pip); experiment: Biodistribution and tumor targeting in PC3-pip tumor-bearing mice; format: in vivo, BALB/c nu/nu mice; settings: 3 h pi
Experimental: PSMA-expressing prostate cancer xenografts were implanted in BALB/c nu/nu mice by subcutaneous injection of PC3-pip cell suspension in PBS (10^7 cells/animal in 100 µL). The average tumor weight was 0.3 ± 0.2 g at the time of the experiment. Four mice per data point were used. Mice were intravenously injected with 5 nmol of the radiotracer (60 kBq, the mass of the injected compound was adjusted with an unlabeled tracer). The mice were euthanized 3 h pi, and the samples were treated as described above.

[3] = Biodistribution in NMRI mice; format: in vivo; settings: for activity in carcass / activity in intestines with content / uptake in blood / uptake in kidney / uptake in liver / uptake in lung / uptake in salivary glands / uptake in spleen / uptake in stomach: 40 pmol/mouse iv
Experimental: Four NMRI mice were intravenously injected with 40 pmol of the radiotracer (60 kBq, the mass of the injected compound was adjusted with an unlabeled tracer). The mice were euthanized with a lethal intraperitoneal injection of ketamine/xylazine, followed by exsanguination at 3 and 24 h post-injection (pi). The organs of interest were collected, weighed, and measured for their activity content using a gamma counter. The uptake activity in organs was calculated as the percentage of injected activity per gram (%IA/g) for the blood, salivary glands, lungs, liver, spleen, stomach, and kidneys and as %IA for the remaining carcass and the rest of the intestines with content.

[4] = of the [99mTc]Tc-labeled ligand; cited from earlier work

Compound: CC(=O)N[C@@H](CCCCNC(=O)CNC(=O)C(CCC(=O)O)[N]1C(=O)C(CCC(=O)O)[N]2C(=O)C(CCC(=O)O)[N]3C(=O)C[S][TcH]312=[O])C(=O)NCCCCCCCC(=O)N[C@@H](Cc1ccc(O)cc1)C(=O)N[C@@H](Cc1ccc2ccccc2c1)C(=O)NCCCC[C@H](NC(=O)N[C@@H](CCC(=O)O)C(=O)O)C(=O)O (stereo partly drawn) [[^99mTc]Tc-BQ0413]
- Kd (PSMA): 0.089 nM

Compound: CC(=O)N[C@@H](CCCCNC(=O)C[N]1C(=O)C[N]2C(=O)C[N]3C(=O)C[S][TcH]132=[O])C(=O)NCCCCCCCC(=O)N[C@@H](Cc1ccc(O)cc1)C(=O)N[C@@H](Cc1ccc2ccccc2c1)C(=O)NCCCC[C@H](NC(=O)N[C@@H](CCC(=O)O)C(=O)O)C(=O)O [[^99mTc]Tc-BQ0412]
- Kd (PSMA): 0.44 nM

Compound: CC(=O)NC(CCCCNC(=O)CNC(=O)C[N]1C(=O)C[N]2C(=O)C[N]3C(=O)C[S][TcH]132=[O])C(=O)NCCCCCCCC(=O)NC(Cc1ccc(O)cc1)C(=O)NC(Cc1ccc2ccccc2c1)C(=O)NCCCCC(NC(=O)NC(CCC(=O)O)C(=O)O)C(=O)O (stereo not drawn) [[^99mTc]Tc-BQ0411]
- Kd (PSMA): 0.604 nM

Compound: CC(=O)N[C@@H](CCCCNC(=O)CNC(=O)C(CCC(=O)O)[N]1C(=O)C(CCC(=O)O)[N]2C(=O)C(CCC(=O)O)[N]3C(=O)C[S][99Tc-]312=[O])C(=O)NCCCCCCCC(=O)N[C@@H](Cc1ccc(O)cc1)C(=O)N[C@@H](Cc1ccc2ccccc2c1)C(=O)NCCCC[C@H](NC(=O)N[C@@H](CCC(=O)O)C(=O)O)C(=O)O (stereo partly drawn) [[^99mTc]Tc-BQ0413]
- logD (octanol–water distribution coefficient) [1]: −2.5 ± 0.1
- ka1 (PSMA): 33000 M⁻¹ s⁻¹
- ka2 (PSMA): 2.9e+08 M⁻¹ s⁻¹
- kd1 (PSMA): 2.9e-06 s⁻¹
- kd2 (PSMA): 2.3e-09 s⁻¹
- activity in carcass ([2]; 5 nmol/mouse iv): 1.7 ± 0.3 %IA/sample
- activity in intestines with content ([2]; 5 nmol/mouse iv): 1.7 ± 0.2 %IA/sample
- uptake in blood ([2]; 5 nmol/mouse iv): 0.17 ± 0.04 %IA/g
- uptake in bone ([2]; 5 nmol/mouse iv): 0.2 ± 0.1 %IA/g
- uptake in kidney ([2]; 5 nmol/mouse iv): 9 ± 2 %IA/g
- uptake in liver ([2]; 5 nmol/mouse iv): 0.3 ± 0.1 %IA/g
- uptake in lung ([2]; 5 nmol/mouse iv): 0.3 ± 0.1 %IA/g
- uptake in muscle ([2]; 5 nmol/mouse iv): 0.06 ± 0.02 %IA/g
- uptake in pancreas ([2]; 5 nmol/mouse iv): 0.13 ± 0.02 %IA/g
- uptake in salivary glands ([2]; 5 nmol/mouse iv): 0.5 ± 0.1 %IA/g
- uptake in small intestine ([2]; 5 nmol/mouse iv): 0.2 ± 0.1 %IA/g
- uptake in spleen ([2]; 5 nmol/mouse iv): 0.9 ± 0.5 %IA/g
- uptake in stomach ([2]; 5 nmol/mouse iv): 0.6 ± 0.2 %IA/g
- uptake in tumor ([2]; 5 nmol/mouse iv): 17 ± 3 %IA/g
- tumor-to-blood ratio ([2]; 5 nmol/mouse): 94 ± 3
- tumor-to-bone ratio ([2]; 5 nmol/mouse): 114 ± 29
- tumor-to-liver ratio ([2]; 5 nmol/mouse): 48 ± 5
- tumor-to-lung ratio ([2]; 5 nmol/mouse): 52 ± 8
- tumor-to-muscle ratio ([2]; 5 nmol/mouse): 284 ± 19
- tumor-to-pancreas ratio ([2]; 5 nmol/mouse): 137 ± 10
- tumor-to-salivary ratio ([2]; 5 nmol/mouse): 31 ± 3
- tumor-to-small intestine ratio ([2]; 5 nmol/mouse): 126 ± 57
- tumor-to-spleen ratio ([2]; 5 nmol/mouse): 16 ± 4
- tumor-to-stomach ratio ([2]; 5 nmol/mouse): 24 ± 2
- activity in carcass ([3]; 3 h pi): 9 ± 1 %IA/sample
- activity in intestines with content ([3]; 3 h pi): 3.8 ± 0.4 %IA/sample
- uptake in blood ([3]; 3 h pi): 0.5 ± 0.1 %IA/g
- uptake in kidney ([3]; 3 h pi): 242 ± 43 %IA/g
- uptake in liver ([3]; 3 h pi): 0.7 ± 0.1 %IA/g
- uptake in lung ([3]; 3 h pi): 1.0 ± 0.3 %IA/g
- uptake in salivary glands ([3]; 3 h pi): 3.0 ± 0.1 %IA/g
- uptake in spleen ([3]; 3 h pi): 1.2 ± 0.3 %IA/g
- uptake in stomach ([3]; 3 h pi): 3.1 ± 0.5 %IA/g
- activity in carcass ([3]; 24 h pi): 1.4 ± 0.2 %IA/sample
- activity in intestines with content ([3]; 24 h pi): 0.5 ± 0.2 %IA/sample
- uptake in blood ([3]; 24 h pi): 0.05 ± 0.01 %IA/g
- uptake in kidney ([3]; 24 h pi): 56 ± 14 %IA/g
- uptake in liver ([3]; 24 h pi): 0.21 ± 0.03 %IA/g
- uptake in lung ([3]; 24 h pi): 0.18 ± 0.03 %IA/g
- uptake in salivary glands ([3]; 24 h pi): 0.30 ± 0.01 %IA/g
- uptake in spleen ([3]; 24 h pi): 0.3 ± 0.2 %IA/g
- uptake in stomach ([3]; 24 h pi): 1.0 ± 0.5 %IA/g
- washout of activity from kidneys ([3]; 24 h pi compared to 3 h pi): 77%

Compound: CC(=O)N[C@@H](CCCCNC(=O)CNC(=O)C(CCC(=O)O)NC(=O)C(CCC(=O)O)NC(=O)C(CCC(=O)O)NC(=O)CS)C(=O)NCCCCCCCC(=O)N[C@@H](Cc1ccc(O)cc1)C(=O)N[C@@H](Cc1ccc2ccccc2c1)C(=O)NCCCC[C@H](NC(=O)N[C@@H](CCC(=O)O)C(=O)O)C(=O)O (stereo partly drawn) [BQ0413]
- overall charge [4]: −4

Compound: CC(=O)N[C@@H](CCCCNC(=O)CNC(=O)CNC(=O)CNC(=O)CS)C(=O)NCCCCCCCC(=O)N[C@@H](Cc1ccc(O)cc1)C(=O)N[C@@H](Cc1ccc2ccccc2c1)C(=O)NCCCC[C@H](NC(=O)N[C@@H](CCC(=O)O)C(=O)O)C(=O)O [BQ0412]
- overall charge [4]: −1

Compound: CC(=O)N[C@@H](CCCCNC(=O)CNC(=O)CNC(=O)CNC(=O)CNC(=O)CS)C(=O)NCCCCCCCC(=O)N[C@@H](Cc1ccc(O)cc1)C(=O)N[C@@H](Cc1ccc2ccccc2c1)C(=O)NCCCC[C@H](NC(=O)N[C@@H](CCC(=O)O)C(=O)O)C(=O)O [BQ0411]
- overall charge [4]: −1
